Reference: the supplement of paper PMC13380429
± gives the standard deviation of the averaged measurements.

Columns and labels:
Settings in all cases: 72 h
HepG2 [1] = test: cell viability relative to DMSO; higher = less toxic
Vero E6 [2] = test: as above
U2OS [3] = test: as above
Calu-3 [4] = test: as above
Caco-2 [5] = test: as above
HepG2 [6] = test: relative viability EC50 (midpoint between 100% and the lowest measured viability); higher = less toxic
Vero E6 [7] = test: as above
U2OS [8] = test: as above
Calu-3 [9] = test: as above
Caco-2 [10] = test: as above
HepG2 [11] = test: drug sensitivity score (DSS) for viability; higher = more toxic; extreme values may be limits of the assay
Vero E6 [12] = test: as above
U2OS [13] = test: as above
Calu-3 [14] = test: as above
Caco-2 [15] = test: as above

Compound	cell viability (HepG2 [1]; 1 nM) [%]	cell viability (HepG2 [1]; 10 nM) [%]	cell viability (HepG2 [1]; 100 nM) [%]	cell viability (HepG2 [1]; 1000 nM) [%]	cell viability (HepG2 [1]; 10000 nM) [%]	cell viability (Vero E6 [2]; 1 nM) [%]	cell viability (Vero E6 [2]; 10 nM) [%]	cell viability (Vero E6 [2]; 100 nM) [%]	cell viability (Vero E6 [2]; 1000 nM) [%]	cell viability (Vero E6 [2]; 10000 nM) [%]	cell viability (U2OS [3]; 1 nM) [%]	cell viability (U2OS [3]; 10 nM) [%]	cell viability (U2OS [3]; 100 nM) [%]	cell viability (U2OS [3]; 1000 nM) [%]	cell viability (U2OS [3]; 10000 nM) [%]	cell viability (Calu-3 [4]; 1 nM) [%]	cell viability (Calu-3 [4]; 10 nM) [%]	cell viability (Calu-3 [4]; 100 nM) [%]	cell viability (Calu-3 [4]; 1000 nM) [%]	cell viability (Calu-3 [4]; 10000 nM) [%]	cell viability (Caco-2 [5]; 1 nM) [%]	cell viability (Caco-2 [5]; 10 nM) [%]	cell viability (Caco-2 [5]; 100 nM) [%]	cell viability (Caco-2 [5]; 1000 nM) [%]	cell viability (Caco-2 [5]; 10000 nM) [%]	relative viability EC50 (HepG2 [6]) [µM]	relative viability EC50 (Vero E6 [7]) [µM]	relative viability EC50 (U2OS [8]) [µM]	relative viability EC50 (Calu-3 [9]) [µM]	relative viability EC50 (Caco-2 [10]) [µM]	drug sensitivity score (HepG2 [11])	drug sensitivity score (Vero E6 [12])	drug sensitivity score (U2OS [13])	drug sensitivity score (Calu-3 [14])	drug sensitivity score (Caco-2 [15])
Cc1ccc(-c2cn3c4c(sc3n2)CCCC4)cc1 [pifithrin-cyclic]	105	99.1	105	108	91.7	119	96.5	109	102	97.1	102	101	101	102	98.5	98.3	105	100	109	107	104	93	91.2	105	92.9	> 10	> 10	> 10	> 10	> 10	0	0	0	0	0
OC[C@H]1O[C@@H](Oc2cc(O)cc(/C=C/c3ccc(O)cc3)c2)[C@H](O)[C@@H](O)[C@@H]1O [polydatin]	98.1	93.9	93.2	96.6	96.8	101	104	95.7	100	99	101	103	102	99.4	98.2	100	101	96.9	103	102	99.4	97.2	97.4	101	96.3	> 10	> 10	> 10	> 10	> 10	0	0	0	0	0
CC(C)N(CCNC(=O)CN1CCCC1=O)C(C)C [pramiracetam]	101	100	97.6	107	104	93.9	97	94.4	99.7	108	98.8	93.2	103	95.6	105	95.7	103	109	100	103	94.6	93.6	114	96.4	98.9	> 10	> 10	> 10	> 10	> 10	0	0	0	0	0
CCCC(C(=O)OCCN(CC)CC)(c1ccccc1)c1ccccc1 [proadifen]	101	100	92.6	95	88.1	97.9	96	98.4	97.3	99.8	93	97.9	99.1	102	98.5	99.3	93.1	101	105	99.6	89.8	101	102	101	87.9	> 10	> 10	> 10	> 10	> 10	0	0	0	0	0
CCN(CC)CCNC(=O)c1ccc(N)cc1 [procainamide]	99.9	115	107	102	106	95.9	97.4	92.6	94.1	106	94.9	97.9	98.8	101	100	105	110	93.5	99.5	98.7	88.5	97.6	96.1	105	101	> 10	> 10	> 10	> 10	> 10	0	0	0	0	0
COc1ccc2nc3cc(Cl)ccc3c(Nc3cc(CN4CCCC4)c(O)c(CN4CCCC4)c3)c2n1 [pyronaridine]	105	87	99.8	90.5	-0.1	104	102	108	96.7	0.1	98.3	104	97.2	102	31.7	102	111	95.5	104	46.4	99.2	95.8	100	87.9	29.4	2.38	2.93	3.34	3.54	1.87	7.1	6	3.6	2.5	5.9
CO[C@H]1/C=C/O[C@@]2(C)Oc3c(C)c(O)c4c(O)c(cc(O)c4c3C2=O)NC(=O)/C(C)=C\C=C\[C@H](C)[C@H](O)[C@@H](C)[C@@H](O)[C@@H](C)[C@H](OC(C)=O)[C@@H]1C [rifamycin-sv]	99.2 ± 5.4	92.7 ± 7.1	110 ± 4	88 ± 5.7	92.2 ± 7.7	99.5 ± 3.5	96.8 ± 1.3	99.4 ± 2.4	97.2 ± 2.3	99.3 ± 4.4	101 ± 2.6	102 ± 3.1	100	105 ± 2.8	100 ± 1.8	89.1	90.3	106	96.5	97	102.6 ± 0.71	101 ± 1.5	103 ± 2.9	103 ± 4.1	95.8 ± 5.3	> 10	> 10	> 10	> 10	> 10	0.25 ± 0.35	0	0	0	0
C/C=C1\NC(=O)[C@H]2CSSCC/C=C/[C@H](CC(=O)N[C@H](C(C)C)C(=O)N2)OC(=O)[C@H](C(C)C)NC1=O [romidepsin]	87.1	31.9	0.5	-0.4	0.1	98.1	102	87.8	0.1	-0.1	96.9	55.5	5.6	0.5	0.2	92.5	39.4	8.7	6.3	2.5	104	124	6.6	1.4	0.2	0.0052	0.217	0.0117	0.0068	0.0451	39.4	20	35.1	37	28.5
CN1CCN(c2nc(C3=C(c4c[nH]c5ccccc45)C(=O)NC3=O)c3ccccc3n2)CC1 [sotrastaurin]	108	107	101	104	92.6	96.1	99.4	100	99.3	101	95.6	94	103	95	94.1	101	94.6	96	97.6	98.6	96.3	102	99.1	86.8	89.7	> 10	> 10	> 10	> 10	> 10	0	0	0	0	0.9
CCCCNc1ccc(C(=O)OCCN(C)C)cc1 [tetracaine]	99.5	99.3	104	104	94.3	107	105	103	101	99.5	104	97.4	98.7	98.2	102	107	101	98.2	98.4	108	101	92.7	105	100	101	> 10	> 10	> 10	> 10	> 10	0	0	0	0	0
CCCCS(=O)(=O)N[C@@H](Cc1ccc(OCCCCC2CCNCC2)cc1)C(=O)O [tirofiban]	99.1	102	104	91.5	99.6	94.8	93.5	93.7	86.3	101	95.5	98.5	98.7	101	105	94.5	84.1	96.3	105	110	94	99.9	98.3	104	107	> 10	> 10	> 10	> 10	> 10	0	0	0	0	0
Cc1c(Cl)cccc1Nc1ccccc1C(=O)O [tolfenamic-acid]	98.4	111	106	110	103	98.1	103	90.4	98.8	101	98.9	95	101	101	98.8	98.8	96.3	92.7	92.4	101	95.7	99	102	96.4	107	> 10	> 10	> 10	> 10	> 10	0	0	0	0	0
COc1ccc2c(C(=S)N(C)CC(=O)O)cccc2c1C(F)(F)F [tolrestat]	91.2	98.6	94.9	94.2	103	94.7	95.9	93.5	91.2	96.8	94.7	98.4	96.5	98	99.1	103	100	94.5	107	98.6	92.9	95.8	90.6	98.9	89.3	> 10	> 10	> 10	> 10	> 10	0	0	0	0	0
CN1CCc2c(c3ccccc3n2Cc2ccc(C(=O)NO)cc2)C1 [tubastatin-A]	107	104	90.1	90.9	36.9	98.7	102	101	102	78.3	102	97	99.3	89.2	84	108	93.5	99.6	89.9	81.5	97.2	91.2	99	93.3	88.9	2.02	> 10	> 10	> 10	> 10	5	0.6	1	1.2	0
